# Source: patent US20260060982A1, “USE OF BTK INHIBITOR AND SINGLE-DOSE DRUG” (HUBEI BIO-PHARMACEUTICAL INDUSTRIAL TECHNOLOGICAL INSTITUTE …, priority 2023, published 2026)
# What was measured:
# Format in all cases: in vivo
# [1] = tested on: anti-DNP IgE-induced passive cutaneous anaphylaxis in BALB/c mice; assay: Passive cutaneous anaphylaxis (PCA) model in mice induced with anti-DNP IgE
# Excerpt: Passive cutaneous anaphylaxis test, also known as PCA reaction, is a local allergic reaction caused by antibodies that bind to the same or different animal tissues. The PCA animal model in the present disclosure was a passive sensitization model in which IgE binds to specific receptors on skin mast cells. When allergens were stimulated, local mast cells released allergic mediators, thereby increasing local vascular permeability. […] The specific steps were as follows:
# The PCA model in mice was induced using anti-DNP IgE. Specifically, BALB/c mice were divided into 9 groups, namely, a normal control group (no administration, injection, or feeding of any solvent), a model group (no administration, injection, or feeding of any solvent), a prednisone group (10 mg/kg, administered for 3 consecutive days, QD (once a day), prednisone concentration of 1 mg/mL, and an administration volume of 10 mL/kg), a cetirizine group (20 mg/kg, administered for 3 consecutive days, QD, cetirizine concentration of 2 mg/mL, and an administration volume of 10 mL/kg), a low-dose group and a medium-dose group for the test substance LOU-064 (15 mg/kg and 45 mg/kg, administered for 3 consecutive days, BID (twice a day), LOU-064 concentrations of 1.5 mg/mL and 4.5 mg/mL, and an administration volume of 10 mL/kg), and a low-dose group, a medium-dose group, and a high-dose group for compound (I) (15 mg/kg, 45 mg/kg, and 90 mg/kg, administered for 3 consecutive days, BID, compound (I) concentrations of 1.5 mg/mL, 4.5 mg/mL, and 9 mg/mL, and an administration volume of 10 mL/kg), with 9 mice in each group, administered by gavage for a total of 4 days. On day 3 of the administration, anti-DNP IgE (Sigma-Aldrich) was injected into the left ears of 8 groups of mice (no normal control group), and the same volume of PBS was injected into the right ears of 8 groups and the left and right ears of the normal control group to allow it to bind to mast cells. Then, 24 hours after the fourth day of anti-DNP IgE injection, a mixed solution of antigen (DNP-HAS, Sigma) and pigment Evan's Blue (Sigma) (0.25 mL/mouse, i.v.) was injected into the tail vein (the normal control group was injected with the same volume of the mixed solution of antigen and pigment Evan's Blue). The antigen reacted with the antibody attached to the mast cells, causing a local allergic reaction, increased local vascular permeability, and pigment penetration into the tissue. The reaction intensity was determined by measuring the local pigment content 30 minutes later. The dye was extracted from the left and right ears, and the absorbance of Evan's blue was measured at a specific wavelength. […] The efficacy effects of each test substances in the PCA animal model were evaluated.
# BTK = BTK (Homo sapiens, UniProt Q06187); assay: BTK target occupancy in peripheral blood mononuclear cells (ELISA), Phase I single-dose trial; set-up: endogenous in cells; host or cells: human peripheral blood mononuclear cells (PBMCs) of trial subjects, lysate
# Protocol: The receptor occupancy of compound (I) in human peripheral blood mononuclear cell lysate was detected by ELISA. The analysis method was to perform relative quantitative determination of BTK in human peripheral blood mononuclear cells (PBMCs) using ELISA.
# PBMC lysate containing BTK was incubated with compound (I), with a control containing no compound (I), then incubated with biotinlated compound (I), and then added to a well plate pre-coated with streptavidin. When compound (I) was incubated with PBMC lysate, it was bound to BTK, thereby preventing BTK from binding to biotinylated compound (I). Since the complex cannot bind to the well plate, it was difficult to generate a response signal.
# Rabbit anti-BTK primary antibody incubated with the above samples would bind to BTK. Tetramethylbenzidine (TMB) was the substrate of HRP coupled to the anti-rabbit secondary antibody. […] After color development, the absorbance was measured at a wavelength of 450 nm. […] The content of free BTK was proportional to the absorbance. In this way, the content of BTK can be indirectly detected. […]
# The analysis was performed using the Per-protocol set. The differences in BTK target occupancy rate among the different dose groups was analyzed using the Chi-Square test; and the relationship between dose, plasma concentration, and BTK target occupancy rate was analyzed using Logistic Regression.
# [2] = tested on: PG-PS-induced arthritis in Lewis rats; assay: PG-PS-induced arthritis model in rats; conditions: for joint tissue lesions (pathology): day 30
# Excerpt: Intraperitoneal injection of PG-PS suspension can effectively induce chronic, erosive, and relapsing symptoms similar to human rheumatoid arthritis in rats, and is often used to evaluate the in vivo effectiveness of medicaments in the early discovery of arthritis medicaments. The specific steps were as follows:
# On day 0, Lewis rats were randomly divided into 6 groups, with 5 rats in the first group and 10 rats in each group from the second group to the sixth group. All rats in the second to sixth groups were intraperitoneally injected with PG-PS (Lee Laboratories, PG-PS 10S, 5.1 mg/ml Rhamnose) to establish the model. The PG-PS injection dose v=15 μg/g×bw (rat weight, in g)/5.1 μg/μL.
# On day 1, the model rats (the second to sixth groups) were randomly redivided into 5 groups, with 10 rats in each group. The animals in each group were given the corresponding medicament or vehicle by gavage once a day until the 29th day. […] Clinical observations and clinical scoring were performed daily during the administration period. The ankle diameter of each animal after modeling was subtracted from its ankle diameter before modeling to obtain the ankle diameter difference (delta ankle diameter). The area under the curve (AUC) was calculated by analyzing the ankle diameter difference of each animal in each group. The inhibition rate of each administration group relative to the blank vehicle control was calculated by the average AUC between groups.
# Pathology: On day 30, the rats were euthanized. The two hind limbs of rats were stained with toluidine blue to evaluate the degree of joint damage in terms of inflammatory cell lesions, pannus formation, cartilage damage, bone resorption, and periosteal new bone formation, and the severity was scored on a scale from 0 to 7.
# Sequence of BTK (Q06187 whole entry): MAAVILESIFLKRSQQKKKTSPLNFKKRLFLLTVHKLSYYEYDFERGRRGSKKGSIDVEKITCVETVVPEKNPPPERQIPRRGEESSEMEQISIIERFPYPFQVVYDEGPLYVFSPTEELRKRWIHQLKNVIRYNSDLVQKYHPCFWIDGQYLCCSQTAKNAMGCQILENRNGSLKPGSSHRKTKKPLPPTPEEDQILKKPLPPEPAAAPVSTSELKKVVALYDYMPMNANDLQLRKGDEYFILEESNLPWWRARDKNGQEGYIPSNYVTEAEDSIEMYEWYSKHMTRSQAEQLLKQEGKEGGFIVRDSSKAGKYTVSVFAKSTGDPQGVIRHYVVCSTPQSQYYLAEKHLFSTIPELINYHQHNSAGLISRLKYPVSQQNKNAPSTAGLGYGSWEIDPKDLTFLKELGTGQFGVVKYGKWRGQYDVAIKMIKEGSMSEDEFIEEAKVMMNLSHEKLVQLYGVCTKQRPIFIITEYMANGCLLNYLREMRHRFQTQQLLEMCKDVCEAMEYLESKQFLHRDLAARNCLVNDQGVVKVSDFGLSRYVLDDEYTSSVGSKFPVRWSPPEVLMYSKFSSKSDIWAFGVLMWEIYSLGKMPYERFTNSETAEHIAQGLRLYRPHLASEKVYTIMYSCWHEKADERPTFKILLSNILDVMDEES
smiles,measurement,setting,value
"C=CC(=O)N1CCC[C@@H](n2nc(-c3ccc(Oc4ccccn4)cc3)c3c(N)n[nH]c(=O)c32)C1 [compound (I), (R)-1-(1-acryloylpiperidin-3-yl)-4-amino-3-(4-(pyridin-2-yloxy)phenyl)-1H-pyrazolo[3,4-d]pyridazin-7(6H)-one]","Concentration of Evan's Blue, Left ear, Average value",[1]; 15 mg/kg BID by gavage,25.68 µg/mL
same,"Concentration of Evan's Blue, Left ear, Average value",[1]; 45 mg/kg BID by gavage,18.21 µg/mL
same,"Concentration of Evan's Blue, Left ear, Average value",[1]; 90 mg/kg BID by gavage,22.00 µg/mL
same,Evan's Blue content in the modeling ear compared with the model group,"[1]; three dose groups (15, 45, 90 mg/kg BID)",significantly reduced
same,maximum BTK target occupancy rate,BTK; single administration of 10 mg,58.93%
same,maximum BTK target occupancy rate,BTK; single administration of 25 mg or above,~100%
same,inhibition rate (AUC of ankle diameter difference vs blank vehicle control),[2]; 1 mg/kg once a day by gavage until the 29th day,47.7%
same,joint tissue lesions (pathology),[2]; 1 mg/kg,trend of alleviating tissue damage
same,inhibition rate (AUC of ankle diameter difference vs blank vehicle control),[2]; 3 mg/kg once a day by gavage until the 29th day,64.7%
same,joint tissue lesions (pathology),[2]; 3 mg/kg,significant improvement effect
same,inhibition rate (AUC of ankle diameter difference vs blank vehicle control),[2]; 10 mg/kg once a day by gavage until the 29th day,77.3%
same,joint tissue lesions (pathology),[2]; 10 mg/kg,significant improvement effect
